# Assay results from patent US20110318380A1, “MHC Multimers in Cancer Vaccines and Immune Monitoring” (priority 2008, published 2011).
# Read-outs that look alike come from different tables or passages of the source.
# Columns and labels:
# [1] = test system: PBL from a breast cancer patient; settings: with vs without peptide; in doublets; cited from earlier work
# [2] = test system: T2 cells; settings: cited from earlier work
# [3] = biological target: Bcl-X(L)173-182 specific CD8 T cells in PBL from a breast cancer patient; assay: flow cytometry of PBL ex vivo, APC dextramer with 7-AAD, CD3 and CD8; compared with an HIV specific dextramer as negative control
# [4] = biological target: purified folded MHC-complex (Example 37)
substance,measurement,setting,value
YLNDHLEPWI (listed as Homo Sapiens),number of spots (IFN-gamma producing T-cells),[1],clearly shows the presence of BclX(L) specific T-cells
same,lysis of peptide-pulsed T2 cells,"[2]; Clone 7, 13, 15, 17, and 18",did not show specific lysis
same,lysis of peptide-pulsed T2 cells,"[2]; Clone 8, 9, 10, 11, and 12",effectively lysed
same,cell lysis of T2 cells pulsed with different concentrations of peptide,"[2]; clone 9, E:T ratio 1:1",significant even at low concentrations
same,cell lysis of peptide-pulsed T2 cells,"[2]; clone 9, specific vs irrelevant peptide, three E:T ratios",necessary to get killing of the target cell
dextramer complex HLA-A2/Bcl-X(L)173-182-APC (from UniProt P61769 21-119) (peptide-MHC),level of dextramer positive CD-8 cells in the patient sample,[3],0.03%
W6/32 mouse-anti-HLA-ABC antibody (Dako M0736),OD450 ratio to the negative control β2m,[4],> 6 fold
"GLQHWVPEL (Irrelevant peptide) [BA4697-105, irrelevant peptide loaded on T2 target cells, reference compound]",lysis of peptide-pulsed T2 cells,"[2]; Clone 8, 9, 10, 11, and 12",without killing
